From BigSolDB 2.1

Brc1cnc2[nH]ccc2c1
solubility (mole fraction)
Conditions | in acetonitrile | in dichloromethane | in ethanol | in ethyl acetate | in isopropanol | in methanol | in methyl acetate | in n-butanol | in n-hexane | in n-propanol
278.15 K | 0.00224 | 0.00083 | 0.0078 | 0.0161 | 0.00779 | 0.00595 | 0.0222 | 0.0154 | 0.00015 | 0.00916
283.15 K | 0.00304 | 0.00133 | 0.00958 | 0.0184 | 0.00915 | 0.00673 | 0.0253 | 0.0177 | 0.00017 | 0.0109
288.15 K | 0.00366 | 0.00216 | 0.0106 | 0.02 | 0.0106 | 0.00779 | 0.0279 | 0.0202 | 0.00019 | 0.0123
293.15 K | 0.00436 | 0.00333 | 0.0125 | 0.0225 | 0.0123 | 0.00882 | 0.0312 | 0.0228 | 0.00021 | 0.0145
298.15 K | 0.00519 | 0.00505 | 0.0139 | 0.0258 | 0.0143 | 0.00972 | 0.0347 | 0.0251 | 0.00024 | 0.0165
303.15 K | 0.00616 | 0.00749 | 0.0158 | 0.0286 | 0.0165 | 0.0111 | 0.0381 | 0.0278 | 0.00027 | 0.0188
308.15 K | 0.00726 | 0.0106 | 0.0177 | 0.0321 | 0.019 | 0.0124 | 0.0419 | 0.0312 | 0.0003 | 0.0209
313.15 K | 0.00858 | 0.0148 | 0.0198 | 0.0363 | 0.0217 | 0.0138 | 0.0459 | 0.0345 | 0.00034 | 0.0237
318.15 K | 0.00981 | – | 0.0222 | 0.0404 | 0.0252 | 0.0153 | 0.0509 | 0.0377 | 0.00036 | 0.0268
323.15 K | 0.0116 | – | 0.0245 | 0.045 | 0.0275 | 0.0171 | 0.0549 | 0.0415 | 0.00041 | 0.0298
